Values belong to the compound of their own block, whether it stands above or below them.
Key:
[1] = Solubility of optional additional components in non-aqueous solvents; format: physicochemical
From the text: Additional ingredients were chosen for their compatibility with (e.g., miscibility in) 1,3 propanediol, 1,2 propanediol, and 1,3 butanediol.

[2] = most solvents; cited from earlier work
skin [3] = conditions: 4% HQ versus 5% Vitamin C; cited from earlier work
skin [4] = conditions: in vivo; cited from earlier work
[5] = Experimental: This example was reproduced.
All mixtures were heated to 85° C.

erythema (skin redness) = conditions: concentrations of 0.2%; cited from earlier work

- maximum concentrations soluble before urea starts to precipitate (the ceiling) ([5]; ascorbic acid together with urea in propylene glycol, butylene glycol and propanediol): 20%
Compound: NC(N)=O [U, urea]

- degradation on heating [5]: showed signs of degradation
Compound: O=C1O[C@H]([C@@H](O)CO)C(O)=C1O [ascorbic acid, L-ascorbic acid]
- improvement (skin [3]): 62.5%

- solubility of glycyrrhizic acid ([1]; 1,3-propanediol): shows solubility
Compound: CC1(C)[C@@H](O[C@H]2O[C@H](C(=O)O)[C@@H](O)[C@H](O)[C@H]2O[C@@H]2O[C@H](C(=O)O)[C@@H](O)[C@H](O)[C@H]2O)CC[C@]2(C)[C@H]3C(=O)C=C4[C@@H]5C[C@@](C)(C(=O)O)CC[C@]5(C)CC[C@@]4(C)[C@]3(C)CC[C@@H]12 [glycyrrhizic acid, Glycyrrhizic acid]

Continued, compound first:

Compound: COc1cc(CC(C(C)=O)C(C)=O)ccc1O [Acetyl zingerone]
- solubility of acetyl zingerone ([1]; 0.5-1%, 1,3 propanediol, 1,2 propanediol and 1,3 butanediol): readily soluble

Compound: O=C(O)CCCCCCCC(=O)O [AzA, Azelaic acid]
- solubility of AzA [2]: very poorly soluble
- concentration of AzA that can be solubilized ([1]; 1,3 propanediol): up to 10%
- solubility of AzA in presence of hydroxyethyl urea ([1]; 1,3 propanediol): slightly increased
- AzA solubilized together with AA and U ([1]; with 10% AA, 5% U in a 1,3 propanediol base): 7.5%

Compound: Oc1ccc(O)cc1 [HQ, hydroquinone]
- improvement (skin [3]): 93%
- side-effects (skin [3]): 68.7%

Compound: CC(C)(CO)[C@@H](O)C(=O)NCCCO [Panthenol]
- concentration at which inhibition of transepidermal water loss is apparent (skin [4]): ≥ 1%

Compound: Madecassoside
- reduction of erythema (skin redness), clinical data (erythema (skin redness)): desirable ability to reduce erythema
- solubility of madecassoside ([1]; concentration of 0.2%, 1,3 propanediol, 1,2 propanediol and 1,3 butanediol): soluble

From patent US12390444B2, “Stabilizing vitamin C topical formulations” (MF Beauty Partners LLC, priority 2020, dated 2025)
